Assay results: US9458113B2 (Boehringer Ingelheim International GmbH, priority 2014, dated 2016)

What was measured:
[1] = biological target: Human neutrophil elastase (Homo sapiens (Human), UniProt P08246); assay: Human Neutrophil Elastase Assay; type: biochemical; conditions: substrate MeOSuc-Ala-Ala-Pro-Val-AMC 250 μM, pH 7.5
[2] = Metabolic stability with human liver microsomes; type: in vitro ADME; conditions: pH 7.6; pooled human liver microsomes, 1 μM test compound, 37° C.; read-out: t1/2 INVITRO
cytochrome P450 2C8 = cytochrome P450 2C8 (Homo sapiens (Human), UniProt P10632); assay: Cytochrome P450 2C8 inhibition; type: in vitro ADME; conditions: human liver microsomes, Amodiaquine deethylation; read-out: IC50 (CYP 2C8)
Text: Assay for Determination of Cytochrome P450 2C8 Inhibition
(I=inhibitor concentration, S=slope factor, B=background activity)

[3] = Drug transport across human Caco-2 cells; type: in vitro ADME; conditions: apparent permeability coefficient, Caco-2 monolayers, pH 7.2, 37° C.; for Papp A→B at 10 µM: apical-to-basal (absorptive), read-out: PEAB; for Papp B→A at 10 µM: basal-to-apical (secretory), read-out: PEBA
Text: Assay for Determination of Drug Transport Across Human Caco-2 Cells
The assay provides information on the potential of a compound to pass the cell membrane, on the extent of oral absorption as well as on whether the compound is actively transported by uptake and/or efflux transporters. For the measurement of permeability across polarized, confluent human cancer colon carcinoma cells 2 (Caco-2) cell monolayers grown on permeable filter supports are used as the in vitro absorption model.
Apparent permeability coefficients (PE) of the compounds across the Caco-2 monolayers are measured (pH 7.2, 37° C.) in apical-to-basal (AB) (absorptive) and basal-to-apical (BA) (secretory) transport direction. AB permeability (PEAB) represents drug absorption from the intestine into the blood and BA permeability (PEBA) drug secretion from the blood back into the intestine via both passive permeability as well as active transport mechanisms mediated by efflux and uptake transporters that are expressed on the Caco-2 cells. The compounds are assigned to permeability/absorption classes by comparison of the AB permeabilities with the AB permeabilities of reference compounds with known in vitro permeability and oral absorption in the human. Identical or similar permeabilities in both transport directions indicate passive permeation, vectorial permeability points to additional active transport mechanisms. […] Active transport is concentration-dependently saturable.
Caco-2 cells (1-2*10^5 cells/cm^2 area) are seeded on filter inserts (Costar transwell polycarbonate or PET filters, 0.4 μm pore size) and cultured (DMEM) for 10 to 25 days. Compounds are dissolved in appropriate solvent (like DMSO, […] stock solutions). Stock solutions are diluted with HTP-4 buffer (128.13 mM NaCl, 5.36 mM KCl, 1 mM MgSO4, 1.8 mM CaCl2, 4.17 mM NaHCO3, 1.19 mM Na2HPO4x7H2O, 0.41 mM NaH2PO4xH2O, 15 mM HEPES, 20 mM glucose, pH 7.2) to prepare the transport solutions (typically 10 μM compound, final DMSO<=0.5%). The transport solution (TL) is applied to the apical or basolateral donor side for measuring A-B or B-A permeability (3 filter replicates), respectively. The receiver side contains HTP-4 buffer supplemented with 2% BSA. Samples are collected at the start and end of experiment from the donor and at various time intervals for up to 2 hours also from the receiver side for concentration measurement by LC-MS/MS or scintillation counting. Sampled receiver volumes are replaced with fresh receiver solution.
The apparent permeability coefficients (PEAB and PEBA) of selected compounds in the Caco-2 drug transport assay described above are listed in Table 16.

cytochrome P450 2C8, sequence (P10632 whole entry): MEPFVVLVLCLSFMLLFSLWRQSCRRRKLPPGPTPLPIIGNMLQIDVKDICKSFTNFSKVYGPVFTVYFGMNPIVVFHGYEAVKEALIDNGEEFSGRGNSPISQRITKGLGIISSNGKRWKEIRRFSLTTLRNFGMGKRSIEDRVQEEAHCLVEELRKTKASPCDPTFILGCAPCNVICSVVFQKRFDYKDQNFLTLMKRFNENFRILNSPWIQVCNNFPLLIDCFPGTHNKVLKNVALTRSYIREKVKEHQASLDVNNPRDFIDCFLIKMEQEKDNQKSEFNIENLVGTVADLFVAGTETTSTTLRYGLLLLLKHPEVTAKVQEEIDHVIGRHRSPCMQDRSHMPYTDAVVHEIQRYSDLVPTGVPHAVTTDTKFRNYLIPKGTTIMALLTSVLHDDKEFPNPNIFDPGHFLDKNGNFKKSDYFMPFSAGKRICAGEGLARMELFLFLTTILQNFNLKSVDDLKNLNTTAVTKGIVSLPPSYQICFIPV
Human neutrophil elastase, sequence (P08246 30-247): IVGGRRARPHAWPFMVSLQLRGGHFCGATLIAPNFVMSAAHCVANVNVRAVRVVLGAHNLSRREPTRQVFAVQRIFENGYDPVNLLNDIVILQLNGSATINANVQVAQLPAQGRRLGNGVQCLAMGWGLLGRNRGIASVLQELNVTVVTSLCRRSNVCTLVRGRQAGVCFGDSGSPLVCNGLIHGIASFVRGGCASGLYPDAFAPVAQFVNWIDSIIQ

SMILES | IC50 [1] [nM] | half-life at 1 μM [2] [min] | IC50 (cytochrome P450 2C8) [µM] | Papp A→B at 10 µM [3] [×10⁻⁶ cm/s] | Papp B→A at 10 µM [3] [×10⁻⁶ cm/s]
CN1C(=O)N(c2cccc(C(F)(F)F)c2)C2=C(C(=O)CC2)[C@H]1c1ccc(C#N)cc1C(N)=O [Example 2, 5-Cyano-2-[(R)-3-methyl-2,5-dioxo-1-(3-trifluoromethyl-phenyl)-2,3,4,5,6,7-hexahydro-1H-cyclopentapyrimidin-4-yl]-benzamide] | 2.4 | > 130 | > 50 | 4.8 | 51
CN1C(=O)N(c2cccc(C(F)(F)F)c2)C2=C(C(=O)CC2)[C@H]1c1ccc(C#N)cc1-c1ccc(=O)n(C)c1 [Example 23, 4-[(R)-3-Methyl-2,5-dioxo-1-(3-trifluoromethyl-phenyl)-2,3,4,5,6,7-hexahydro-1H-cyclopentapyrimidin-4-yl]-3-(1-methyl-6-oxo-1,6-dihydro-pyridin-3-yl)-benzonitrile] | < 1 | > 130 | > 50 | 6.6 | 87
CN1C(=O)N(c2cccc(C(F)(F)F)c2)C2=C(C(=O)CC2)[C@H]1c1ccc(C#N)cc1CNC(C)(C)C [Example 24, 3-(tert-Butylamino-methyl)-4-[(R)-3-methyl-2,5-dioxo-1-(3-trifluoromethyl-phenyl)-2,3,4,5,6,7-hexahydro-1H-cyclopentapyrimidin-4-yl]-benzonitrile] | 1.9 | > 130 | > 50 | 21 | 84
